Measurements taken from article PMC6915135, “Simultaneous Quantification of Brigatinib and Brigatinib-Analog in Rat Plasma and Brain Homogenate by LC-MS/MS: Application to Comparative Pharmacokinetic and Brain Distribution Studies” (International Journal of Analytical Chemistry, 2019).

Experiments:
[1] = Pharmacokinetic study in rats after single oral administration (plasma, LC-MS/MS); assay type: in vivo, male Sprague Dawley rats; conditions: 5 mg/kg single oral, male SD rats, mean ± SD; for Vd (apparent volume of distribution) / AUC(0-t) / Cmax / MRT / Tmax / half-life: n = 6; for AUC(0-t) / Cmax / MRT / Tmax / half-life / CL/F: Sprague Dawley, rat; for CL/F: n = 6, read-out: CL (CLz/F)
Experimental: (§1) Seventy-two male Sprague Dawley rats weighing 180–220 g (7-8 weeks old, Certificate no. SCXK (Shandong) 2014-0007) were supplied by Shandong Laboratory Animal Center, Shandong First Medical University & Shandong Academy of Medical Sciences. All rats were kept in plastic cages with 12 h day/night cycle under controlled temperature (about 23–25°C) and fed with standard laboratory rat diet and water ad libitum. All the animal welfare and experimental procedures were approved by the Animal Ethics Committee at the Institute of Materia Medica, Shandong First Medical University & Shandong Academy of Medical Sciences (Jinan, China) and strictly in accordance with the guide for the care and use of laboratory animals (National Research Council of USA, 1996).
For the pharmacokinetic studies, after fasting with free access to water for at least 12 h, twelve rats were randomly divided into two groups (n = 6). The brigatinib and brigatinib-analog were both dissolved in ethanol-0.5% methylcellulose (1 : 19) for dosing. The two group rats were intragastrically administered with brigatinib and brigatinib-analog at the same dose of 5 mg/kg, respectively.
Blood samples, about 100 μL of each, were placed in heparinized Eppendorf tubes predose and at 5, 15, 30, 60, 120, 180, 240, 300, 360, 480, 720, and 1,440 min postdose from the jugular vein of rats. The blood samples were immediately centrifuged at 3,500 rpm for 15 min at 4°C, and the plasma samples were transferred carefully from each collection and stored at −20°C until analysis.
(§2) Experimental data were expressed as mean ± standard deviation (SD). Drug and Statistics 2.0 (DAS 2.0) software package (Mathematical Pharmacology Professional Committee of China, Shanghai, China) was used for estimating pharmacokinetic and brain distribution parameters by a noncompartmental method. Statistical analyses were performed with statistical software IBM SPSS Statistics 20.0 (IBM Corporation, Armonk, NY, USA). Differences between two groups were evaluated by the t-test. A value of p < 0.05 was considered as statistically significant.

[2] = Brain distribution study in rats after single oral administration (brain homogenate, LC-MS/MS); assay type: in vivo, male Sprague Dawley rats; conditions: for blood-brain barrier penetration / Kp: 5 mg/kg oral, rats; for Cmax / MRT / Tmax / half-life / Kp: Sprague Dawley, rat; for Cmax / MRT / Tmax / half-life / AUC(0–t): brain, 5 mg/kg single oral, male SD rats, mean ± SD, n = 6; for Kp: male, average AUC(0–t) brain to plasma, 1 g brain taken as 1 mL plasma, read-out: ratio of AUCbrain/AUCplasma
Experimental: as §1
For the brain distribution studies, the remaining sixty rats were randomly divided into ten groups (n = 6, per group). The distributions of brigatinib and brigatinib-analog in the rat brain were also investigated at the dose of 5 mg/kg after single oral administration to rats. The whole brain was excised immediately at 5, 60, 240, 480, and 1,440 min postdose, thoroughly rinsed with 0.9% saline solution, and wiped with a filter paper. Each brain sample was weighed accurately and homogenized in double distilled water (1 : 5, w/v) by using a tissue homogenizer (IKA, Germany) and frozen at −20°C until analysis.
as §2

[3] = Stability of QC samples in rat plasma under various storage conditions; assay type: in vitro ADME; conditions: for Stability under the storage conditions investigated: rat plasma and brain homogenate QC samples, 6 h ambient, −20°C 10 d, three freeze-thaw cycles, 24 h at 4°C autosampler; for Measured conc. after ambient temperature for 6 h / Measured conc. after autosampler at 4°C for 24 h / Measured conc. after three freeze-thaw cycles / Measured conc. after −20°C for 10 d: rat plasma, n = 6
Experimental: (§3) The stability of brigatinib and brigatinib-analog was evaluated by analysis of low and high concentration levels of QC samples under different conditions (n = 6). The temperature and timing conditions were as follows: 6 h at ambient temperature, stored at −20°C for 10 d, three freeze-thaw cycles, and 24 h at 4°C in an autosampler. The measured concentrations were all within acceptable limits (±15% of the nominal concentrations) during the entire validation. […] Carryover was evaluated by determining the peak areas for brigatinib and brigatinib-analog by injecting blank matrix samples sequentially after the highest calibration standard sample injection. Furthermore, no carryover effect was obtained in this study.

[4] = Stability of QC samples in rat brain homogenate under various storage conditions; assay type: in vitro ADME; conditions: n = 6
Experimental: as §3

the triple mutation = system: the triple mutation; design: method as in PMID 28287083, PMID 27780853; conditions: read-out: IC50 against the triple mutation; cited from earlier work

Row | SMILES | Vd (apparent volume of distribution) [1] [L/kg] | AUC(0-t) [1] [ng·h/mL] | Cmax [1] [ng/mL] | MRT [1] [h] | Tmax [1] [h] | half-life [1] [h] | CL/F [1] [mL/min/kg] | blood-brain barrier penetration [2] | Cmax [2] [ng/g] | MRT [2] [h] | Tmax [2] [h] | half-life [2] [h] | AUC(0–t) [2] | Kp [2] | Stability under the storage conditions investigated [3] | Measured conc. after ambient temperature for 6 h ([3]; spiked 2.0 ng/mL) [ng/mL] | Measured conc. after autosampler at 4°C for 24 h ([3]; spiked 2.0 ng/mL) [ng/mL] | Measured conc. after three freeze-thaw cycles ([3]; spiked 2.0 ng/mL) [ng/mL] | Measured conc. after −20°C for 10 d ([3]; spiked 2.0 ng/mL) [ng/mL] | Measured conc. after ambient temperature for 6 h ([3]; spiked 1600 ng/mL) [ng/mL] | also measured
1 | COc1cc(N2CCC(N(C)C)CC2)ccc1Nc1ncc(Cl)c(Nc2ccccc2P(C)(C)=O)n1 [Brigatinib-analog] | 3.43 ± 0.96 | 4370 | 734 ± 83.1 | 5.48 | 4.33 | 2.01 ± 0.496 | 21 ± 6 | could both penetrate the blood-brain barrier | 45.8 ± 11.8 | 6.32 | 4 | 4.27 ± 0.667 | 23196.08 ± 4932.95^∗ ng/g·min | 0.088 | stable | 2.03 ± 0.11 | 1.89 ± 0.12 | 2.01 ± 0.09 | 1.95 ± 0.12 | 1638.54 ± 97.76 | Measured conc. after autosampler at 4°C for 24 h ([3]; spiked 1600 ng/mL): 1582.61 ± 101.88 ng/mL; Measured conc. after three freeze-thaw cycles ([3]; spiked 1600 ng/mL): 1578.36 ± 125.20 ng/mL; Measured conc. after −20°C for 10 d ([3]; spiked 1600 ng/mL): 1705.49 ± 109.83 ng/mL; Measured conc. after ambient temperature for 6 h ([4]; spiked 1.0 ng/mL): 1.04 ± 0.05 ng/mL; Measured conc. after autosampler at 4°C for 24 h ([4]; spiked 1.0 ng/mL): 0.97 ± 0.06 ng/mL; Measured conc. after three freeze-thaw cycles ([4]; spiked 1.0 ng/mL): 0.98 ± 0.07 ng/mL; Measured conc. after −20°C for 10 d ([4]; spiked 1.0 ng/mL): 1.07 ± 0.11 ng/mL; Measured conc. after ambient temperature for 6 h ([4]; spiked 800 ng/mL): 828.64 ± 66.54 ng/mL; Measured conc. after autosampler at 4°C for 24 h ([4]; spiked 800 ng/mL): 783.28 ± 32.39 ng/mL; Measured conc. after three freeze-thaw cycles ([4]; spiked 800 ng/mL): 833.68 ± 56.59 ng/mL; Measured conc. after −20°C for 10 d ([4]; spiked 800 ng/mL): 846.09 ± 53.83 ng/mL; IC50 (the triple mutation): < 100 nM
2 | COc1cc(N2CCC(N3CCN(C)CC3)CC2)ccc1Nc1ncc(Cl)c(Nc2ccccc2P(C)(C)=O)n1 [Brigatinib] | 5.66 ± 1.94 | 4360 | 538 ± 186 | 6.73 | 4.33 | 3.16 ± 0.343 | 22 ± 10 | could both penetrate the blood-brain barrier | 68.9 ± 21.6 | 7.48 | 5.5 | 5.32 ± 1.95 | 58255.81 ± 13725.10 ng·min/g | 0.223 | stable | 2.10 ± 0.12 | 1.90 ± 0.10 | 1.94 ± 0.09 | 2.05 ± 0.17 | 1585.06 ± 98.31 | Measured conc. after autosampler at 4°C for 24 h ([3]; spiked 1600 ng/mL): 1645.17 ± 118.52 ng/mL; Measured conc. after three freeze-thaw cycles ([3]; spiked 1600 ng/mL): 1678.34 ± 95.87 ng/mL; Measured conc. after −20°C for 10 d ([3]; spiked 1600 ng/mL): 1719.73 ± 107.09 ng/mL; Measured conc. after ambient temperature for 6 h ([4]; spiked 1.0 ng/mL): 1.06 ± 0.08 ng/mL; Measured conc. after autosampler at 4°C for 24 h ([4]; spiked 1.0 ng/mL): 0.96 ± 0.05 ng/mL; Measured conc. after three freeze-thaw cycles ([4]; spiked 1.0 ng/mL): 1.02 ± 0.06 ng/mL; Measured conc. after −20°C for 10 d ([4]; spiked 1.0 ng/mL): 0.97 ± 0.06 ng/mL; Measured conc. after ambient temperature for 6 h ([4]; spiked 800 ng/mL): 788.85 ± 69.25 ng/mL; Measured conc. after autosampler at 4°C for 24 h ([4]; spiked 800 ng/mL): 813.16 ± 72.23 ng/mL; Measured conc. after three freeze-thaw cycles ([4]; spiked 800 ng/mL): 847.44 ± 57.65 ng/mL; Measured conc. after −20°C for 10 d ([4]; spiked 800 ng/mL): 760.29 ± 48.33 ng/mL; IC50 (the triple mutation): < 100 nM
